{
  "source": "patent US11072584B2",
  "about": "“Carbon monoxide releasing norbornenone compounds” (OTAGO INNOVATION LIMITED, priority 2015, dated 2021)",
  "key": {"MDA-MB-231": {"test_system": "MDA-MB-231", "assay": "crystal violet cell viability assay", "format": "cell-based", "settings": "for EC50: Homo sapiens; for cellular toxicity (in words): MDA-MB-231 cells", "quoted_text": "The loss of cell adhesion for anchorage-dependent cell lines, such as MDCK, represents a surrogate marker of imminent cellular demise which can be measured by the crystal violet cell adhesion (CVCA) assay.^42 MDCK cells were grown in DMEM supplemented with 4% donor calf serum and 1% antibiotic (Gibco Life Technologies, Auckland NZ) and plated at 1×10^6 cells/mL in 24 well plates. CO donor compounds, CO expired compounds (left in solution for over 48 hours) or non CO releasing, debromo derivatives were dissolved in either ultrapure water or for non-water soluble compounds, in DMSO and diluted to 20-100 μM (to a final concentration of 1% DMSO where appropriate). Cells were exposed to CO donor compounds or the respective vehicle control solution for 1 hour at 37° C. prior to washing and incubating for a further 23 hours in fresh media. Cells were fixed in 96% ethanol and stained in 0.05% crystal violet solution in 20% ethanol, prior to washing and solubilising (24 hours) in 2 mL 0.1% acetic acid in 50% ethanol. Sample solutes (100 μL) from each well were transferred into a 96 well plate and absorbance measured at 585 nm. Cell survival was reported as a percentage of the value obtained for cells exposed to vehicle only and used to plot a concentration-response curve for each compound from which an EC50 value was obtained.\nToxicity was reported as EC50 values calculated from percentage cell survival using Origin Pro8 software (OriginLab, MA, USA)."}, "MDCK cells": {"test_system": "MDCK cells", "assay": "crystal violet cell adhesion (CVCA) cell toxicity assay", "settings": "Canis lupus familiaris, MDCK"}, "[1]": {"test_system": "isolated rat aortic rings", "assay": "isolated rat aortic ring vasorelaxation", "set-up": "species or system Lewis rats", "settings": "rings pre-contracted with phenylephrine; 37° C.", "description": "Transverse ring sections of aorta were isolated from male Lewis rats ([…], n=5-6 per group) under halothane anaesthesia and suspended under 2 g tension in an organ bath containing 10 mL of oxygenated (95% O2/5% CO2) Krebs Henseleit (KH) buffer containing 118 mM NaCl, 4.7 mM KCl, 1.2 mM KH2PO4, 1.2 mM MgSO4.7H2O, 22 mM NaHCO3, 11 mM glucose, 0.03 mM K^+ EDTA, and 2.5 mM CaCl2 as previously described.^43 Indomethacin (10 μM) was present in the buffer to exclude endogenous prostaglandins as potential modulators of vascular tone. Relaxation responses to oCOm-19 or oCOm-21 ([…]) were assessed using individual dosing in tissues pre-contracted with phenylephrine (0.1 μM). All results were subsequently expressed as a percentage of the maximal phenylephrine-induced contraction. Following repeat wash steps with Krebs Henseleit buffer, smooth muscle function and viability was confirmed by repeating the contractile response to phenylephrine. Aortic responses to individual EC50 concentrations of either CO donor in phenylephrine vasoconstricted rings were repeated separately, in the presence of the CO-chelator, myoglobin (5 μM) and the selective, irreversible inhibitor of sGC 1H-(1,2,4)oxadiazolo[4,3-a]quinoxalin-1-one, (ODQ, 10 μM), as previously described.^44"}, "horse heart myoglobin": {"test_system": "horse heart myoglobin", "assay": "carboxymyoglobin spectrophotometric assay (CO binding to myoglobin)", "format": "biochemical", "settings": "25 to 400 μM; 5 to 90 minutes", "description": "CO released from oCOm-19 and oCOm-21 was measured using an established carboxymyoglobin spectrophotometric assay,^39 adapted to a 96 well plate format to enable the simultaneous correction at all absorbance wavelengths arising from any potential interference from the donor compounds.^40 Freshly prepared horse heart myoglobin (66 μM) in a PBS solution (pH 7.4) was reduced with 10% w/v sodium dithionite and added to a 96 well plate. […] Absorption spectra (λ 500-600 nm) were run at ten minute intervals using a Spectramax 96-well spectrophotometer (Molecular Devices, Crawley, UK) at 37° C. CO gas saturated PBS (714 μM), was employed as a positive control."}, "Solubility in water": {"assay": "Solubility in water", "format": "physicochemical", "settings": "for solubility (in words): water or physiological buffers; for solubility: water, 21° C."}, "[2]": {"assay": "carboxyhaemoglobin in rats exposed to CO gas (earlier unpublished studies)", "format": "in vivo", "settings": "20 ppm CO gas"}, "[3]": {"settings": "*MDA-MB-231 cells, 1 hr exposure at 37° C., viability after 23 hrs, read-out: EC50 (μM), Active Compound"}, "[4]": {"settings": "* (MDA-MB-231), inactive CO depleted analogues, 37° C., read-out: EC50 (μM), Inactive Compound"}, "[5]": {"settings": "read-out: EC50 (μM), Active Compound"}},
  "note": "Counter-ions that a name gives are not always drawn. Like-named read-outs stand apart in the source and are kept apart here.",
  "data": [
    {"smiles": "CC12C(=O)C(C)(C(c3ccccc3)=C1c1ccccc1)C1(Br)C(=O)N(c3ccc(O)cc3)C(=O)C21", "note": "(stereo not drawn) [oCOm-8, 3a-Bromo-3a,4,7,7a-tetrahydro-4,7-dimethyl-2-(4-hydroxyphenyl)-5,6-diphenyl-4,7-methano-1H-isoindole-1,3,8(2H)-trione]", "values": [
      {"measurement": "EC50", "setting": "MDA-MB-231; [3]", "value": 23.1, "unit": "µM"}
    ]},
    {"smiles": "Cc1c2c(c(C)c(-c3ccccc3)c1-c1ccccc1)C(=O)N(CCC(=O)NCCN)C2=O.Cl", "note": "[BP-19, N-(2-aminoethyl)-3-(4,7-dimethyl-1,3-dioxo-5,6-diphenylisoindolin-2-yl)propanamide Hydrochloride]", "values": [
      {"measurement": "EC50", "setting": "MDCK cells; read-out: EC50 (μM), Inactive Compound", "value": "> 100", "unit": "µM"},
      {"measurement": "vasorelaxant response (in words)", "setting": "[1]", "value": "no vasorelaxant effect"}
    ]},
    {"smiles": "COCCOCCOCCOc1ccc(N2C(=O)c3c(C)c(-c4ccccc4)c(-c4ccccc4)c(C)c3C2=O)cc1", "note": "[BP-12, 2-(4-(2-(2-(2-Methoxyethoxy)ethoxy)ethoxy)phenyl)-4,7-dimethyl-5,6-diphenyl-1H-isoindole-1,3(2H)-dione]", "values": [
      {"measurement": "melting point", "value": "127 to 129", "unit": "°C"},
      {"measurement": "EC50", "setting": "MDA-MB-231; [4]", "value": 196, "unit": "µM"}
    ]},
    {"smiles": "CC12C(=O)C(C)(C(c3ccccc3)=C1c1ccccc1)C1(Br)C(=O)N(c3ccccc3)C(=O)C21", "note": "(stereo not drawn) [oCOm-1, 3a-Bromo-3a,4,7,7a-tetrahydro-4,7-dimethyl-2,5,6-triphenyl-4,7-methano-1H-isoindole-1,3,8(2H)-trione]", "values": [
      {"measurement": "EC50", "setting": "MDA-MB-231; [3]", "value": 4.6, "unit": "µM"},
      {"measurement": "cellular toxicity (in words)", "setting": "MDA-MB-231", "value": "greatest toxicity"}
    ]},
    {"smiles": "[C-]#[O+].[C-]#[O+].[C-]#[O+].[C-]#[O+].[C-]#[O+].[C-]#[O+].[Cl][Ru][Cl].[Cl][Ru][Cl]", "note": "[CORM2, Tri-carbonyldichlororuthenium (II) dimer, reference compound]", "values": [
      {"measurement": "carbonmonoxymyoglobin formation (in words)", "setting": "horse heart myoglobin", "value": "characteristic shift in the absorbance maxima of myoglobin"}
    ]},
    {"smiles": "Cc1c2c(c(C)c(-c3ccccc3)c1-c1ccccc1)C(=O)N(CCC(=O)ON1C(=O)CCC1=O)C2=O", "note": "[BP-17, 2,5-Dioxo-1-pyrrolidinyl 4,7-dimethyl-5,6-diphenyl-1H-isoindole-1,3(2H)-dione-2-propanoate]", "values": [
      {"measurement": "EC50", "setting": "MDA-MB-231; [4]", "value": 159, "unit": "µM"}
    ]},
    {"smiles": "CC12C(=O)C(C)(C(c3ccccc3)=C1c1ccccc1)C1(Br)C(=O)N(CCC(=O)NC(CO)(CO)CO)C(=O)C21", "note": "(stereo not drawn) [oCOm-24, N-(2-Hydroxy-1,1-bis(hydroxymethyl)ethyl)-3-(3a-bromo-4,7-dimethyl-1,3,8-trioxo-5,6-diphenyl-3a,4,7,7a-tetrahydro-1H-4,7-methanoisoindol-2(2H)-yl)propanamide]", "values": [
      {"measurement": "EC50", "setting": "MDCK cells; [5]", "value": "> 100", "unit": "µM"},
      {"measurement": "solubility (in words)", "setting": "Solubility in water", "value": "decreased solubility"},
      {"measurement": "solubility", "setting": "Solubility in water", "value": 5000, "unit": "µg/mL"}
    ]},
    {"smiles": "COCCOCCOCCOc1ccc(C2=C(c3ccc(OCCOCCOCCOC)cc3)C3(C)C(=O)C2(C)C2C(=O)N(c4ccc(OCCOCCOCCOC)cc4)C(=O)C23Br)cc1", "note": "(stereo not drawn) [oCOm-15, 3a-Bromo-3a,4,7,7a-tetrahydro-4,7-dimethyl-2,5,6-tri-(4-(2-(2-(2-methoxyethoxy)ethoxy)ethoxy)phenyl)-4,7-methano-1H-isoindole-1,3,8(2H)-trione]", "values": [
      {"measurement": "EC50", "setting": "MDA-MB-231; [3]", "value": 183, "unit": "µM"}
    ]},
    {"smiles": "CCCOC(=O)[C@@H](N)CCCCN1C(=O)C2C3(C)C(=O)C(C)(C(c4ccccc4)=C3c3ccccc3)C2(Br)C1=O", "note": "(stereo partly drawn) [oCOm-34, nPropyl (2S)-2-amino-6-(3a-bromo-4,7-dimethyl-1,3,8-trioxo-5,6-diphenyl-1,3,3a,4,7,7a-hexahydro-2H-4,7-methanoisoindol-2-yl)hexanoate Trifluoroacetic Acid Salt]", "values": [
      {"measurement": "EC50", "setting": "MDCK cells; [5]", "value": "> 100", "unit": "µM"},
      {"measurement": "solubility (in words)", "setting": "Solubility in water", "value": "water soluble"}
    ]},
    {"smiles": "[C-]#[O+]", "note": "[CO gas, carbon monoxide]", "values": [
      {"measurement": "carboxyhaemoglobin level", "setting": "[2]; 2 day duration", "value": "1.1±0.25", "unit": "%"},
      {"measurement": "carboxyhaemoglobin level", "setting": "[2]; 7 day duration", "value": "2±0.75", "unit": "%"}
    ]},
    {"smiles": "COC(=O)[C@@H](N)CCCCN1C(=O)C2C3(C)C(=O)C(C)(C(c4ccccc4)=C3c3ccccc3)C2(Br)C1=O", "note": "(stereo partly drawn) [oCOm-30, Methyl (2S)-2-amino-6-(3a-bromo-4,7-dimethyl-1,3,8-trioxo-5,6-diphenyl-1,3,3a,4,7,7a-hexahydro-2H-4,7-methanoisoindol-2-yl)hexanoate Trifluoroacetic Acid Salt]", "values": [
      {"measurement": "EC50", "setting": "MDCK cells; [5]", "value": "> 100", "unit": "µM"},
      {"measurement": "solubility (in words)", "setting": "Solubility in water", "value": "water soluble"}
    ]},
    {"smiles": "COC(=O)[C@@H](N)CCCN1C(=O)C2C3(C)C(=O)C(C)(C(c4ccccc4)=C3c3ccccc3)C2(Br)C1=O", "note": "(stereo partly drawn) [oCOm-40, Methyl (2S) 2-amino-5-(3a-bromo-4,7-dimethyl-1,3,8-trioxo-5,6-diphenyl-1,3,3a,4,7,7a-hexahydro-2H-4,7-methanoisoindol-2-yl)-pentanoate Trifluoroacetic Acid Salt]", "values": [
      {"measurement": "EC50", "setting": "MDCK cells; [5]", "value": "> 100", "unit": "µM"},
      {"measurement": "solubility (in words)", "setting": "Solubility in water", "value": "water soluble"}
    ]},
    {"smiles": "Cc1c2c(c(C)c(-c3ccccc3)c1-c1ccccc1)C(=O)N(c1ccccc1)C2=O", "note": "[BP-1, 4,7-Dimethyl-2,5,6-triphenyl-1H-isoindole-1,3(2H)-dione]", "values": [
      {"measurement": "melting point", "value": 260, "unit": "°C"},
      {"measurement": "EC50", "setting": "MDA-MB-231; [4]", "value": "> 200", "unit": "µM"}
    ]},
    {"smiles": "CC12C(=O)C(C)(C(c3ccccc3)=C1c1ccccc1)C1(Br)C(=O)N(CCC(=O)ON3C(=O)CCC3=O)C(=O)C21", "note": "(stereo not drawn) [oCOm-17, 2,5-Dioxopyrrolidin-1-yl 3-(3a-bromo-4,7-dimethyl-1,3,8-trioxo-5,6-diphenyl-1,3,3a,4,7,7a-hexahydro-2H-4,7-methanoisoindol-2-yl)propanoate]", "values": [
      {"measurement": "solubility (in words)", "setting": "Solubility in water", "value": "lack of solubility in water"},
      {"measurement": "EC50", "setting": "MDA-MB-231; [3]", "value": 216, "unit": "µM"},
      {"measurement": "cellular toxicity (in words)", "setting": "MDA-MB-231", "value": "least toxic"}
    ]},
    {"smiles": "CC12C(=O)C(C)(C(c3ccccc3)=C1c1ccccc1)C1(Br)C(=O)N(Cc3cn(CCOC4OC(CO)C(O)C(O)C4O)nn3)C(=O)C21", "note": "[oCOm-49, 3a-Bromo-3a,4,7,7a-tetrahydro-4,7-dimethyl-2-[[1-(2-α-D-mannopyranosyloxy)ethyl]-1H-1,2,3-triazol-4yl]methyl-5,6-diphenyl-4,7-methano-1H-isoindole-1,3,8(2H)-trione]", "values": [
      {"measurement": "EC50", "setting": "MDCK cells; [5]", "value": "> 200", "unit": "µM"},
      {"measurement": "solubility (in words)", "setting": "Solubility in water", "value": "decreased water solubility"},
      {"measurement": "solubility", "setting": "Solubility in water", "value": 900, "unit": "µg/mL"}
    ]},
    {"smiles": "COCCOCCOCCOc1ccc(-c2c(C)c3c(c(C)c2-c2ccc(OCCOCCOCCOC)cc2)C(=O)N(c2ccc(OCCOCCOCCOC)cc2)C3=O)cc1", "note": "[BP-15, 2,5,6-Tri-(4-(2-(2-(2-methoxyethoxy)ethoxy)ethoxy)phenyl)-4,7-dimethyl-1H-isoindole-1,3(2H)-dione]", "values": [
      {"measurement": "EC50", "setting": "MDA-MB-231; [4]", "value": "> 200", "unit": "µM"}
    ]}
  ]
}
